Measured values: patent US20250375453A1, “HIGH-EFFICIENCY ANTIMICROBIAL COMPOSITION” (CM4CURE S.A., priority 2023, published 2025)

Experiments:
[1] = test system: Pseudomonas aeruginosa (PA); test: MIC in monotherapy and in combination therapy (ISO standard 20776-1); format: cell-based
Description: (§1) Summary of MIC Values for Fluometacyl (FLC)+Chlorhexidine (CHX) Tested Against MRSA, Enterococcus faecalis (VRE), Pseudomonas aeruginosa (PA) and Candida albicans (CA).
(§2) By Minimum Inhibitory Concentration (MIC) one means the lowest concentration of antimicrobial that prevents visible growth of a microorganism (determined according to ISO standard 20776-1).
(§3) This finds an implication in combining many known antimicrobials together rather than discovering new chemical entities.

[2] = test system: Staphylococcus aureus (MRSA); test: as above; format: cell-based
Description: as §1, §2, §3

[3] = test system: Candida albicans (CA); test: as above; format: cell-based
Description: as §1, §2, §3

[4] = cited from earlier work
[5] = test system: Vancomycin-resistant Enterococcus faecalis (VRE, ATCC BAA-2573); test: Synergy checkerboard assay / broth micro-dilution MIC (ISO 20776-1 with modifications); format: cell-based
Experimental: • 1. Preparation of the inoculum of Vancomycin-resistant Enterococcus faecalis (VRE, ATCC BAA-2573). Inoculum is prepared by suspension of 1 colony of bacteria (medium size colony from Tryptic Soy agar plate) in 3 ml of Tryptic Soy broth (TSB) using a 200 μL tip. The solution is mixed by vortexing and incubated at 37° C. overnight (19-24 hours) under shaking at 200 rpm. • 2. Preparation of the Antimicrobial dilution on the day of the experiment. Stock solutions are performed with distilled water for all antimicrobial compound except for Fluometacyl (ethanol). Dilution for each condition is made in Mueller-Hinton broth (NMB). 50p of APIs dilution is added to wells of a 96 wells microplate (each condition in duplicate-triplicate). • Antimicrobial compounds were prepared as follows: • Fluometacyl (F) (4 mg/mL in 100% EtOH) served as a master stock. To obtain the final concentration of 40 μg/ml in the bacterial suspension, initial stock of 160 μg/ml in Mueller-Hinton broth (MHB) was prepared and further 2-fold diluted using the following serial dilution scheme: • (1): 40 μg/ml (160 μg/ml, prepared in MHB) • (2): 20 μg/ml (80 μg/ml, dilution in MHB) • (3): 10 μg/ml (40 μg/ml, dilution in MHB) • (4): 5 μg/ml (20 μg/ml, dilution in MHB) • (5): 2.5 μg/ml (10 μg/ml, dilution in MHB) • (6): 1.25 μg/ml (5 μg/ml, dilution in MHB) • Chlorhexidine acetate (CHLX) (2 mg/mL in H2O) served as a master stock. To obtain the final concentration of 4 μg/ml in the bacterial suspension, initial stock of 16 μg/ml in MHB was prepared and further 2-fold diluted using the following serial dilution scheme: • (1): 8 μg/ml (32 μg/ml, prepared in MHB) • (2): 4 μg/ml (16 μg/ml, prepared in MHB) • (3): 2 μg/ml (8 μg/ml, dilution in MHB) • (4): 1 μg/ml (4 μg/ml, dilution in MHB) • (5): 0.5 μg/ml (2 μg/ml, dilution in MHB) • (6): 0.25 μg/ml (1 μg/ml, dilution in MHB) • 3. Preparation of VRE. Before the experiment, the VRE bacterial suspension (incubated overnight) is diluted 100× in TSB in 4 mL of TSB and grown at 37 C under agitation 200 rpm until OD600 reaches 0.08 to 0.16. This corresponds to the cell density […]. 100 μl of the bacterial solution (OD600 ranging from 0.08 to 0.16) is added to 9 900 μL of Mueller-Hinton Broth (MHB) (dilution 1:100). • 4. Preparation of a 96-well plate. 100 μL of bacteria (diluted 1:100 in MHB from the point 3) is added in each well of the plate containing 100 μL of the serially diluted APIs alone or in combinations as shown in the p. 2. Bacteria should be added into the 96-well plate within the 30 minutes following the preparation of the bacteria in order to maintain the same number of CFU/mL. Plates are incubated at 37° C. overnight. A condition with MHB medium alone or bacteria without APIs will also be added as the control conditions. Since fluometacyl is dissolved in ethanol, extra conditions are added: MHB with ethanol in order to assess the effect of ethanol on bacterial growth. • Following scheme is applied: • 2 antibacterial compounds: 50 μL of a antimicrobial 1+50 μL of a antimicrobial 2+100 μL of bacterial suspension in MHB • 1 antibacterial compound: 50 μL of a drug 1/2+50 μL of MHB+100 μL of bacterial suspension in MHB • Growth control: 100 μL MHB (+/−Ethanol)+100 μL of bacterial suspension • BLANK: MHB only • 5. CFU counting of the initial challenge inoculum. 10 μL of the solution of the bacteria used as the positive control is diluted in 10 mL of TSB. 100 μL is spread on Tryptic Soy agar (done in triplicate) and incubated at 37° C. overnight • 6. Results. The MIC is the lowest concentration that inhibits completely the visible growth of the bacteria (no turbidity in a well). The OD at 600 nm is also recorded for each well as back-up data.
Synergy evaluation resulting from the comparison between activity of the combination of the antimicrobial compounds and their individual activities was represented as the Fractional Inhibitory Concentration (FIC) index value. […]

[6] = test system: Pseudomonas aeruginosa (ATCC 15442); test: Real-time microcalorimetric measurement of bacterial metabolic activity (heat flow, Calscreener); format: cell-based
Experimental: Pseudomonas aeruginosa (ATCC 15442) was grown overnight in TSB (tryptic soy broth) medium, before being diluted 1×10^7 fold in fresh TSB. Subsequently […] aliquots of diluted bacteria suspensions were respectively supplemented with 1, 2, 4, 6, 12 and 24 mg/L of chlorhexidine (digluconate solution, 20% in H2O, Merck). The aqueous solution of chlorhexidine was kept refrigerated according to the manufacturer's technical sheet. Chlorhexidine or mQH2O as a vehicle were added to the bacterial suspensions to obtain the given concentrations followed by a brief vortexing. Bacterial aliquots were then distributed in the dedicated non-activated inserts of a 48-well plate and grown for 24h or more under static conditions at 37 C using Calscreener technology to measure bacterial growth and metabolic activity in Real-Time as described in https://cordis.europa.eu/project/id/784514.
For the study of the combination of chlorhexidine and triafluocyl aforementioned diluted bacterial suspensions were supplemented with either chlorhexidine alone (1, 2, 4, 6, 12 mg/L) or mixed with triafluocyl (20 mg/L, Polpharma). Triafluocyl was stored in absolute ethanol in the refrigerator at a concentration of 3 mg/mL. Triafluocyl, chlorhexidine or both, and ethanol as a vehicle were added to the bacterial suspensions to obtain the given concentrations.
Pseudomonas aeruginosa (ATCC 15442) was grown overnight in TSB (tryptic soy broth) medium, before being diluted 1×10^7 fold in fresh TSB. Subsequently […] aliquots of diluted bacteria suspensions were respectively supplemented with […] of alexidine dihydrochloride (stock solution of 3 mg/mL in ethanol, Merck). […] The stock solutions of alexidine and fluometacyl were kept frozen according to the manufacturer's technical sheet. Alexidine alone or with fluometacyl, and ethanol as a vehicle were added to the bacterial suspensions to obtain the given concentrations followed by a brief vortexing. […]

[7] = test system: Staphylococcus aureus (MRSA, ATCC 6538); test: as above; format: cell-based
Experimental: Staphylococcus aureus (MRSA, ATCC 6538) was grown overnight in TSB (tryptic soy broth) medium, before being diluted 1×10^6 fold in fresh TSB. Subsequently […] aliquots of diluted bacteria suspensions were respectively supplemented with 1 and 2 mg/L of chlorhexidine (digluconate solution, 20% in H2O, Merck). […] The aqueous solution of chlorhexidine and the ethanol-based solution of triafluocyl were kept refrigerated. Chlorhexidine, triafluocyl or both, and ethanol as a vehicle were added to the bacterial suspensions to obtain the given concentrations followed by a brief vortexing. Bacterial aliquots were then distributed in the dedicated non-activated inserts of a 48-well plate and grown for 24 h or more under static conditions at 37 C using Calscreener technology to measure bacterial growth and metabolic activity in Real-Time as described in https://cordis.europa.eu/project/id/784514.
Staphylococcus aureus (MRSA, ATCC 6538) was grown overnight in TSB (tryptic soy broth) medium, before being diluted 1×10^6 fold in fresh TSB. Subsequently […] aliquots of diluted bacteria suspensions were respectively supplemented with 0.25, 0.5 and 1 μg/mL of chlorhexidine (digluconate solution, 20% in H2O, Merck) or alexidine dihydrochloride (stock solution of 3 mg/mL in ethanol, Merck).
The aqueous solution of chlorhexidine and the ethanol-based solution of alexidine were kept refrigerated. Chlorhexidine, alexidine, and ethanol as a vehicle were added to the bacterial suspensions to obtain the given concentrations followed by a brief vortexing. Bacterial aliquots were then distributed in the dedicated non-activated inserts of a 48-well plate and grown for 24 h or more under static conditions at 37 C using Calscreener technology to measure bacterial growth and metabolic activity in Real-Time as described in https://cordis.europa.eu/project/id/784514.
Staphylococcus aureus (MRSA, ATCC 6538) was grown overnight in TSB (tryptic soy broth) medium, before being diluted 1×10^6 fold in fresh TSB. Subsequently […] aliquots of diluted bacteria suspensions were respectively supplemented with […] of alexidine dihydrochloride (stock solution of 3 mg/mL in ethanol, Merck). […] The ethanol-based solutions of alexidine and fluometacyl were stored at −20° C.
Alexidine alone or with fluometacyl, and ethanol as a vehicle were added to the bacterial suspensions to obtain the given concentrations followed by a brief vortexing. Bacterial aliquots were then distributed in the dedicated non-activated inserts of a 48-well plate and grown for 24 h or more under static conditions at 37 C using Calscreener technology to measure bacterial growth and metabolic activity in Real-Time.

[8] = MIC combination / MIC monotherapy

Row | MIC Monotherapy (X) ([1]; antimicrobial alone) | MIC combination dual therapy (Y) ([1]; in FLC + CHX combination) | MIC ([2]; Staphylococcus aureus, MRSA, antimicrobial alone, read-out: MIC Monotherapy (X)) | MIC combination dual therapy (Y) ([2]; in FLC + CHX combination) | MIC Monotherapy (X) ([3]; antimicrobial alone) | MIC combination dual therapy (Y) ([3]; in FLC + CHX combination) | MIC ([5]; Enterococcus faecalis, antimicrobial alone, read-out: MIC Monotherapy (X)) | MIC combination dual therapy (Y) ([5]; in FLC + CHX combination) | Compound | Ratio Y/X [2, 8] | solubility in an aqueous environment or aqueous medium [4] | Ratio Y/X [5, 8] | effect on growth (heat flow) ([6]; triafluocyl 20 mg/L alone) | effect on growth (heat flow) ([7]; triafluocyl 1 mg/L alone) | effect on growth (heat flow) ([6]; alexidine 4 mg/mL alone) | effect on growth (heat flow) ([7]; alexidine 1 mg/mL alone) | effect on metabolic activity (heat flow), compared with chlorhexidine ([7]; alexidine 0.25 and 0.5 mg/mL alone)
1 | Not detected | 20 mg/mL | 20 mg/mL | 5 to 10 mg/mL | Not detected | 20 mg/mL | 20 mg/mL | 2.5 to 10 mg/mL | CCCSc1nc(N[C@@H]2C[C@H]2c2ccc(F)c(F)c2)c2nnn([C@@H]3C[C@H](O)[C@@H](O)[C@H]3O)c2n1 [Fluometacyl, (1S,2R,3S,4R)-4-[7-[[(1R,2S)-2-(3,4-Difluorophenyl)cyclopropyl]amino]-5-(propylthio)-3H-1,2,3-triazolo[4,5-d]pyrimidin-3-yl]-1,2,3-cyclopentanetriol] | 0.25-0.5 | generally not soluble | 0.125-0.5 |  |  |  |  | 
2 |  |  |  |  |  |  |  |  | CCCSc1nc(N[C@@H]2C[C@H]2c2ccc(F)c(F)c2)c2nnn([C@@H]3C[C@H](OCCO)[C@@H](O)[C@H]3O)c2n1 [Triafluocyl, (1S,2S,3R,5S)-3-[7-[(1R,2S)-2-(3,4-difluorophenyl)cyclopropylamino]-5-(propylthio)-3H-[1,2,3]-triazolo[4,5-d]pyrimidin-3-yl]-5-(2-hydroxyethoxy)-1,2-cyclopentanediol] |  | generally not soluble |  | does not inhibit the growth | doesn't affect the growth |  |  | 
3 |  |  |  |  |  |  |  |  | alexidine |  |  |  |  |  | strong growth inhibition | full growth inhibition | noticeably stronger effect
